Experimental data published in patent US20130029334A1, “mRNA As Biomarkers For Liver Injury or Other Liver Perturbations” (priority 2010, published 2013).
Values joined by “and” are separate entries in the source; they are usually repeats but may differ in a detail not shown here. Equal entries are not always repeated. Where two headings read alike, the source gives them in different places.

How the values were obtained:
[1] = tested on: rats; experiment: Alb, Fgb, Hp mRNA expression in liver of treated rats (FIG. 2); assay type: in vivo, rat
Description: FIG. 2 is a graph showing a log2 fold change in expression of Alb, Fgb, and Hp mRNA (detected as cDNA), respectively, in liver of rats treated with DGAL, or with acetaminophen (APAP), as compared to references values determined from rats not treated with DGAL (Control; solid black boxes) or APAP (Control; solid black boxes), respectively.
At 48 hours, Hp mRNA levels were increased by 9, 54 and 86 fold over controls, respectively, at 100, 700, and 1400 mg/kg APAP; while Alb mRNA levels were increased by 13 and 31 fold at 700 and 1400 mg/kg.

[2] = tested on: rats; experiment: Whole genome microarray analysis of plasma mRNA of treated rats; assay type: in vivo, rat; conditions: 24 h; for number of mRNA biomarkers differentially expressed: 2-fold change, false discovery rate <0.05
Description: In this example, illustrated is whole genome microarray analysis, which can be used to reveal treatment-specific transcriptomic profiles following liver injury or liver enzyme induction. […] Total RNA was isolated from the 14,000×g plasma pellet from rats treated with DGAL or APAP. […] Next, this fragmented product was labeled via enzymatic attachment of a biotin-labeled nucleotide that contained an indicator molecule comprising a fluorophore. After this labeled cDNA was hybridized and bound to the oligonucleotides on the microarray, any unbound cDNA was washed away and the microarrays were scanned. During this process, the microarray chips were scanned at a wavelength that allowed the indicator molecule to fluoresce (the excitation wavelength). The level of mRNA biomarker was determined from the level of fluorescence (e.g., correlating to the amount of labeled cDNA hybridized to the microarray) using standard techniques. Data on measurement of mRNA biomarkers (which also may be representative of gene expression induced as a result of liver perturbation) was preprocessed using GC-RMA and log2-transformed. The probe-level microarray data was checked for quality using various graphical and statistical means. Arrays showing low quality RNA or poor amplification were excluded from the analysis. To evaluate the ability of whole genome microarray analysis using plasma mRNA to discriminate between DGAL- and APAP-induced liver perturbation, a one-way analysis of variance and individual t-tests were then used to identify which individual mRNA biomarkers were statistically altered between the two treatment groups. A false-discovery rate correction was used for multiple comparisons. Analysis software was utilized to identify networks of interacting genes and other functional groups using gene lists generated.

[3] = tested on: rats; conditions: 48 hours
Description: (§1) In this example, to model a drug causing liver perturbation (such as injury or hepatotoxicity), hepatotoxicant D-galactosamine (“DGAL”) was administered to rats. Male Sprague-Dawley rats were administered DGAL at 0 (sterile PBS) or 1000 mg/kg intraperitoneally, and sacrificed after 24 hours. […] Blood was harvested from DGAL-treated rats, and serum liver enzymes were measured using a standard laboratory assay.
(§2) In this example, to exemplify a drug causing liver injury, drug acetaminophen (“APAP”) was administered to rats. Rats were administered APAP at 0, 100, 700, and 1400 mg/kg by gavage, and then sacrificed at 6, 24 or 48 hours after treatment. Hematoxylin and eosin-stained liver sections were examined by an accredited pathologist and scored for incidence and severity of hepatocellular necrosis.

[4] = tested on: rats; conditions: rat, in vivo
Description: as §1, §2
Using methods described previously herein, liver enzymes including serum ALT and AST levels, and plasma mRNA levels, were also assessed to determine hepatotoxicity following APAP administration.
Rats were treated with skeletal muscle toxicant bupivacaine (“BPVC”). For BPVC treatment, rats were administered 0.5 mL sterile saline or 0.5% w/v sterile solution of BPVC in saline once into both the right and left tibialis anterior muscles. […] To compare the specificity of circulating liver mRNAs with AST and ALT following skeletal muscle injury, rats were treated with BPVC, and then serum enzymes and circulating liver mRNAs were measured 24 hours after treatment.

[5] = APAP 1400 mg/kg treatment group
[6] = rat plasma, APAP 1400 mg/kg gavage

Structure (SMILES): CC(=O)Nc1ccc(O)cc1 [APAP, acetaminophen]
- expression of Alb mRNA in liver [1, 5]: significant decrease
- expression of Hp mRNA in liver [1, 5]: significant decrease
- number of mRNA biomarkers differentially expressed ([2]; APAP 1400 mg/kg gavage): 1374
- CYP450-related mRNAs in plasma ([2]; APAP 1400 mg/kg gavage): No increases
- Fold increase Adam10 [2, 6]: 14 fold
- Fold increase Akt3 [2, 6]: 4 fold
- Fold increase Angpt1 [2, 6]: 23 fold
- Fold increase Arhgef12 [2, 6]: Arhgef12 (12); F2RI2 (12) fold
- Fold increase B2M [2, 6]: B2M (3) fold
- Fold increase Calr [2, 6]: 3 fold
- Fold increase Dapp1 [2, 6]: 5 fold
- Fold increase F2RI2 [2, 6]: Arhgef12 (12); F2RI2 (12) fold
- Fold increase Fcgr2b [2, 6]: 7 fold
- Fold increase Grin1 [2, 6]: 10 fold
- Fold increase Gsk3b [2, 6]: Gsk3b (6) fold
- Fold increase Hla-C [2, 6]: 23 fold
- Fold increase Hla-E1 [2, 6]: 9 fold
- Fold increase Itga6 [2, 6]: 19 fold
- Fold increase Itgav [2, 6]: Itgav (12) fold
- Fold increase Itgb1 [2, 6]: 17 fold
- Fold increase Jak2 [2, 6]: 13 fold
- Fold increase Lyn [2, 6]: 10 fold
- Fold increase Mapk1 [2, 6]: 15 fold
- Fold increase Nck2 [2, 6]: 8 fold
- Fold increase Pdia3 [2, 6]: Canx (5); Pdia3 (5); fold
- Fold increase Prkc [2, 6]: 4 fold
- Fold increase Prkcq [2, 6]: 3 fold
- Fold increase Psap [2, 6]: 20 fold
- Fold increase Rac1 [2, 6]: 4 fold
- Fold-Change Alb mRNA (first listing) [2, 6]: 102.57 fold and 103 fold
- Fold-Change Alb mRNA (second listing) [2, 6]: 11.26 fold
- Fold-Change Arhgap28 mRNA [2, 6]: 23.18 fold
- Fold-Change C2cd21 mRNA [2, 6]: 21.52 fold
- Fold-Change Ccl2 mRNA [2, 6]: 79.83 fold
- Fold-Change Ceacam1 mRNA [2, 6]: 28.57 fold
- Fold-Change Cxcl2 mRNA [2, 6]: 68.29 fold
- Fold-Change Cxcl7 mRNA [2, 6]: 37.96 fold
- Fold-Change Cxcl12 mRNA [2, 6]: 30.90 fold and 31 fold
- Fold-Change Fam183b mRNA [2, 6]: 26.31 fold
- Fold-Change G1p2 mRNA [2, 6]: 17.16 fold
- Fold-Change Galnt1 mRNA [2, 6]: 22.06 fold
- Fold-Change Gpnmb mRNA [2, 6]: 6.10 fold
- Fold-Change Hspa1a mRNA [2, 6]: 40.60 fold
- Fold-Change Hspa1b mRNA [2, 6]: 21.07 fold
- Fold-Change Kcnab1 mRNA [2, 6]: 24.65 fold
- Fold-Change LOC259245 mRNA [2, 6]: 4.94 fold
- Fold-Change Lta4h mRNA [2, 6]: 6.27 fold
- Fold-Change Mt2a mRNA [2, 6]: 16.40 fold
- Fold-Change Pde5a mRNA [2, 6]: 24.18 fold
- Fold-Change Pgrmc1 mRNA [2, 6]: 2.82 fold
- Fold-Change Prdx5 mRNA [2, 6]: 2.57 fold
- Fold-Change Ptprj mRNA [2, 6]: 61.43 fold
- Fold-Change RT1-A2 mRNA [2, 6]: 22.73 fold
- Fold-Change Rbp4 mRNA [2, 6]: 20.44 fold
- Fold-Change Serpina1 mRNA [2, 6]: 24.15 fold
- Fold-Change Slc24a3 mRNA (rat SEQ ID NO: 47) [2, 6]: 25.57 fold
- Fold-Change Slc24a3 mRNA (rat SEQ ID NO: 57) [2, 6]: 22.11 fold
- Fold-Change Srxn1 mRNA [2, 6]: 21.98 fold
- Fold-Change St3gal2 mRNA [2, 6]: 21.94 fold
- Fold-Change Tuba4a mRNA [2, 6]: 4.21 fold
- Fold-Change Vcl mRNA [2, 6]: 70.40 fold and 70 fold
- Fold-Change Xpo5 mRNA [2, 6]: 30.54 fold
- mortality ([3]; APAP 700 mg/kg gavage): one rat
- mortality ([3]; APAP 1400 mg/kg gavage): one rat

Structure (SMILES): CCCCN1CCCCC1C(=O)Nc1c(C)cccc1C (stereo not shown) [BPVC, bupivacaine]
- ALT [4]: 73.70 ± 4.69 U/L
- AST [4]: 368.25 ± 31.81 U/L
- elevation in serum ALT [4]: 1.96 ×
- elevation in serum AST [4]: 3.58 ×

Structure (SMILES): N[C@H]1C(O)O[C@H](CO)[C@H](O)[C@@H]1O (stereo partly drawn) [DGAL, D-(+)-galactosamine]
- expression of Alb mRNA in liver ([1]; DGAL-treated rats): small but statistically insignificant decrease
- expression of Fgb mRNA in liver ([1]; DGAL-treated rats): significant decrease
- expression of Hp mRNA in liver ([1]; DGAL-treated rats): significant decrease
- number of mRNA biomarkers differentially expressed ([2]; DGAL 1000 mg/kg ip): 804
- Fold increase Aadat ([2]; rat plasma, DGAL 1000 mg/kg ip): 3 fold
- Fold increase Apoc2 ([2]; rat plasma, DGAL 1000 mg/kg ip): 23 fold
- Fold increase C9 ([2]; rat plasma, DGAL 1000 mg/kg ip): 10 fold
- Fold increase Cf1h ([2]; rat plasma, DGAL 1000 mg/kg ip): 14 fold
- Fold increase Cfb ([2]; rat plasma, DGAL 1000 mg/kg ip): 13 fold
- Fold increase Cfi ([2]; rat plasma, DGAL 1000 mg/kg ip): 25 fold
- Fold increase Cyp2a2 ([2]; rat plasma, DGAL 1000 mg/kg ip): 15 fold
- Fold increase Cyp2c9 ([2]; rat plasma, DGAL 1000 mg/kg ip): 32 fold
- Fold increase Cyp3a2 ([2]; rat plasma, DGAL 1000 mg/kg ip): 26 fold
- Fold increase Cyp3a4 ([2]; rat plasma, DGAL 1000 mg/kg ip): 26 fold
- Fold increase Cyp4f12 ([2]; rat plasma, DGAL 1000 mg/kg ip): 13 fold
- Fold increase F2 ([2]; rat plasma, DGAL 1000 mg/kg ip): 14 fold
- Fold increase Fga ([2]; rat plasma, DGAL 1000 mg/kg ip): 28 fold
- Fold increase Mettl7b ([2]; rat plasma, DGAL 1000 mg/kg ip): Mettl7b (9) fold
- Fold increase Pla2g4a ([2]; rat plasma, DGAL 1000 mg/kg ip): 7 fold
- Fold increase Plg ([2]; rat plasma, DGAL 1000 mg/kg ip): 17 fold
- Fold increase Serping1 ([2]; rat plasma, DGAL 1000 mg/kg ip): 7 fold
- Fold-Change Alb mRNA (first listing) ([2]; rat plasma, DGAL 1000 mg/kg ip): 83.32 fold and 83 fold
- Fold-Change Alb mRNA (second listing) ([2]; rat plasma, DGAL 1000 mg/kg ip): 77.08 fold
- Fold-Change Ambp mRNA ([2]; rat plasma, DGAL 1000 mg/kg ip): 111.24 fold and 111 fold
- Fold-Change Apoa1 mRNA ([2]; rat plasma, DGAL 1000 mg/kg ip): 53.34 fold and 53 fold
- Fold-Change Apoc1 mRNA ([2]; rat plasma, DGAL 1000 mg/kg ip): 35.57 fold and 36 fold
- Fold-Change Apoc3 mRNA ([2]; rat plasma, DGAL 1000 mg/kg ip): 58.09 fold
- Fold-Change Apoh mRNA ([2]; rat plasma, DGAL 1000 mg/kg ip): 39.84 fold
- Fold-Change Ccl2 mRNA ([2]; rat plasma, DGAL 1000 mg/kg ip): 25.35 fold
- Fold-Change Cyp2c7 mRNA ([2]; rat plasma, DGAL 1000 mg/kg ip): 102.92 fold and 103 fold
- Fold-Change Cyp2c13 mRNA ([2]; rat plasma, DGAL 1000 mg/kg ip): 40.38 fold and 40 fold
- Fold-Change Fgg mRNA ([2]; rat plasma, DGAL 1000 mg/kg ip): 65.02 fold and 65 fold
- Fold-Change Fgl1 mRNA ([2]; rat plasma, DGAL 1000 mg/kg ip): 52.04 fold
- Fold-Change G1p2 mRNA ([2]; rat plasma, DGAL 1000 mg/kg ip): 5.78 fold
- Fold-Change Gc mRNA ([2]; rat plasma, DGAL 1000 mg/kg ip): 42.82 fold
- Fold-Change Gpnmb mRNA ([2]; rat plasma, DGAL 1000 mg/kg ip): 4.04 fold
- Fold-Change Itih1 mRNA ([2]; rat plasma, DGAL 1000 mg/kg ip): 52.97 fold
- Fold-Change Itih3 mRNA ([2]; rat plasma, DGAL 1000 mg/kg ip): 40.88 fold
- Fold-Change Kng1 mRNA ([2]; rat plasma, DGAL 1000 mg/kg ip): 45.12 fold
- Fold-Change LOC259245 mRNA ([2]; rat plasma, DGAL 1000 mg/kg ip): 11.52 fold
- Fold-Change Lta4h mRNA ([2]; rat plasma, DGAL 1000 mg/kg ip): 3.40 fold
- Fold-Change Mt2a mRNA ([2]; rat plasma, DGAL 1000 mg/kg ip): 18.20 fold
- Fold-Change Mug1 mRNA ([2]; rat plasma, DGAL 1000 mg/kg ip): 108.00 fold
- Fold-Change Obp3 mRNA ([2]; rat plasma, DGAL 1000 mg/kg ip): 96.26 fold
- Fold-Change Pgrmc1 mRNA ([2]; rat plasma, DGAL 1000 mg/kg ip): 3.12 fold
- Fold-Change Prdx5 mRNA ([2]; rat plasma, DGAL 1000 mg/kg ip): 2.03 fold
- Fold-Change Rbp4 mRNA ([2]; rat plasma, DGAL 1000 mg/kg ip): 36.82 fold
- Fold-Change Serpina1 mRNA ([2]; rat plasma, DGAL 1000 mg/kg ip): 12.61 fold
- Fold-Change Serpina3k mRNA ([2]; rat plasma, DGAL 1000 mg/kg ip): 36.42 fold
- Fold-Change Spp2 mRNA ([2]; rat plasma, DGAL 1000 mg/kg ip): 34.78 fold
- Fold-Change Ttr mRNA ([2]; rat plasma, DGAL 1000 mg/kg ip): 60.61 fold and 61 fold
- Fold-Change Tuba4a mRNA ([2]; rat plasma, DGAL 1000 mg/kg ip): 2.24 fold
- Fold-Change Vtn mRNA ([2]; rat plasma, DGAL 1000 mg/kg ip): 57.99 fold
